Measurements: patent US20260132165A1, “MODIFIED NUCLEOSIDE ANALOGUE AND USE THEREOF, AND NUCLEOSIDE ANALOGUE-CONTAINING DOUBLE-STRANDED OLIGONUCLEOTIDE AND USE THEREOF” (RIGERNA THERAPEUTICS (BEIJING) CO., LTD., priority 2023, published 2026)

Assays:
target gene SOD1 [1] = assay: Test Example 8: inhibitory activity on target gene SOD1 in adipose tissues in different parts of mice; format: in vivo, C57BL/6j mice; details: D14; for Subcutaneous fat % Mean value of inhibition rate: abdominal subcutaneous fat; for Subcutaneous fat % Mean value of inhibition rate / Brown fat on back % Mean value of inhibition rate / Paragonadal fat % Mean value of inhibition rate: tail vein injection 5 mg/kg
Description: (§1) RNA extraction: the above tissue samples were taken out from the RNAlater, and smashed for 60 s in Tissuelyser type II full-automatic tissue homogenizer, and total RNAs of various tissue samples were extracted using the full-automatic nucleic acid extraction instrument and the nucleic acid extraction kit from Zhejiang Hanwei Science and Technology Co. Ltd. according to methods described in instructions.
(§2) Reverse transcription reaction: 1 μg of the extracted total RNAs of the tissue samples were taken, and configured into 20 μL of reverse transcription system according to a method described in kit instructions by using a reverse transcription kit (Reverse Transcription System, A3500) from Promega Corporation and selecting Oligo (dT)15 reverse transcription primers, and the reverse transcription reaction was completed. After the reaction was ended, 80 μL of RNase-Free water was added into the reverse transcription system to provide cDNA solution for Real-time PCR detection.
(§3) Real-time PCR detection: 20 μL of Real-time PCR reaction system per PCR detection well was configured according to a method described in kit instructions using SYBR™ Select Master Mix (Catalog number: 4472908) reagent from ABI company. Each detection system contained 5 μL of cDNA template obtained from the above reverse transcription reaction, 10 μL of SYBR™ Select Master Mix, 0.5 μL of 10 μM upstream primers, 0.5 μL of 10 μM downstream primers, and 4 μL of RNase-Free H2O. The configured reaction system was subjected to Real-time PCR amplification on ABI StepOnePlus PCR instrument by a three-step method, wherein an amplification procedure was pre-denaturation at 95° C. for 10 min, then denaturation at 95° C. for 30 s, annealing at 60° C. for 30 s, and extension at 72° C. for 30 s; and processes of denaturation, annealing, and extension were repeated for 40 cycles. Gene expression differences were calculated by the ΔΔCt method after completion of the procedure.
(§4) In the real-time fluorescence quantitative PCR method, relative quantitative calculation of remaining expression level and inhibition rate of gene mRNA of interest in various test groups was performed by the ΔΔCt method, and the calculation method is as follows:
The present test example evaluated, by an evaluation method for inhibitory activity on a target gene in mice, the inhibitory activity of siRNA sequence RZ899090 with the sense strand with the NM073 conjugation at Position 4, siRNA sequence RZ899091 with the sense strand with the NM074 conjugation at Position 4, siRNA sequence RZ899078 with the sense strand with the NM202 conjugation at Position 6 and siRNA reference sequence RZ899093 with the sense strand with the Uhd conjugation at Position 4, siRNA reference sequence RZ899076 with the sense strand with the NM200 conjugation at Position 4 on the target gene SOD1 in adipose tissues of interest in mice.
(§5) 6-8 Week-old C57BL/6j mice were randomly grouped by body weight, 5 per group, 6 groups in total. Mice in each group were dosed with the above siRNA conjugates by tail vein injection, with an administration dose of 5 mg/kg per mouse, and an administration volume of 150 μL. PBS control group was administered with the same volume of siRNA conjugate-free PBS solution. The day of administration was recorded as D0, and 5 mice in each group were sacrificed on D14 after administration. Paragonadal fat, abdominal subcutaneous fat, and brown fat on back were respectively taken. RNA extraction, reverse transcription, and real-time fluorescence quantitative detection were performed on various tissues according to the above method, and gene expression differences were calculated by the above ΔΔCt method.

target gene SOD1 [2] = assay: Test Example 9: inhibitory activity of lipid conjugated siRNA sequences on SOD1 in mouse muscle tissues; format: in vivo, C57BL/6j mice; details: D14; for Diaphragm % Mean value of inhibition rate / Heart % Mean value of inhibition rate / Left quadriceps muscle % Mean value of inhibition rate: tail vein injection 5 mg/kg; for Left quadriceps muscle % Mean value of inhibition rate: left hind leg quadriceps muscle; for inhibitory activity compared with the NM200 conjugated reference sequence RZ899076: heart tissues; for inhibitory activity compared with the NM200 conjugated reference sequence RZ899076 / inhibitory action on the left quadriceps muscle and diaphragm: tail vein 5 mg/kg
Description: as §1, §2, §3, §4
The present test example evaluated, by an evaluation method for inhibitory activity on a target gene in mice, the inhibitory activity of siRNA sequence RZ899090 with the sense strand with the NM073 conjugation at Position 4, siRNA sequence RZ899091 with the sense strand with the NM074 conjugation at Position 4, siRNA sequence RZ899078 with the sense strand with the NM202 conjugation at Position 6 and siRNA reference sequence RZ899093 with the sense strand with the Uhd conjugation at Position 4, siRNA reference sequence RZ899076 with the sense strand with the NM200 conjugation at Position 4 on the target gene SOD1 of interest in muscle tissues in different parts of mice.
as §5, with “Tissues such as left hind leg quadriceps muscle, diaphragm,” for “Paragonadal fat, abdominal subcutaneous fat,”, “heart tissues” for “brown fat on back”, “taken and stored in the RNAlater.” for “taken.”

target gene SOD1 [3] = assay: Test Example 6: inhibitory activity of NM073, NM074 conjugated siRNA sequences on SOD1 by intrathecal administration to rats; format: in vivo, SD rats; details: D28
Description: 6-8 Week-old SD rats were randomly grouped by body weight. Rats in each group were administered with siRNA by intrathecal administration, with an administration dose of 900 μg per rat. Injection was administered from rat spinal cord L5-L6, with an administration volume of 40 μL. Needle was retained for 2 min after completion of injection, and then slowly withdrawn. PBS control group was administered with the same volume of siRNA conjugate-free PBS solution. The day of administration was recorded as 0 day (D0), and the rats were sacrificed at observation point after administration. Different segments of spinal cord and different regions of brain were respectively taken and stored in the RNAlater.
as §1, §2, §3, §4
The present test example evaluated, by an evaluation method for inhibitory activity on a target gene by intrathecal administration to rats, the inhibitory activity of siRNA sequence RZ899090 with the NM073 conjugation at Position 4, siRNA sequence RZ899091 with the NM074 conjugation at Position 4 and siRNA control sequence RZ899093 with the Uhd conjugation on the target gene SOD1 of interest in spinal cord and brain of rats. The above conjugation vectors were different in that NM073 was C18 aliphatic chain and NM074 was C20 aliphatic chain.
6-8 Week-old SD rats were randomly grouped by body weight, 5 per group, 4 groups in total. Rats in each group were dosed with the above siRNA conjugates by intrathecal administration, with an administration dose of 900 μg per rat, and an administration volume of 40 μL. PBS control group was administered with the same volume of siRNA conjugate-free PBS solution. The day of administration was recorded as D0, and the rats were sacrificed on D28 after administration. […]

Substance	Subcutaneous fat % Mean value of inhibition rate (target gene SOD1 [1])	Brown fat on back % Mean value of inhibition rate (target gene SOD1 [1])	Paragonadal fat % Mean value of inhibition rate (target gene SOD1 [1])	Diaphragm % Mean value of inhibition rate (target gene SOD1 [2])	Heart % Mean value of inhibition rate (target gene SOD1 [2])	Left quadriceps muscle % Mean value of inhibition rate (target gene SOD1 [2])	inhibitory activity compared with the NM200 conjugated reference sequence RZ899076 (target gene SOD1 [2])	inhibitory action on the left quadriceps muscle and diaphragm (target gene SOD1 [2])	inhibitory activity compared with the NM200 conjugated reference sequence RZ899076 (target gene SOD1 [1]; paragonadal fat and brown fat on back, tail vein 5 mg/kg)	inhibitory action on the target gene compared with RZ899076 (target gene SOD1 [1]; subcutaneous fat, tail vein 5 mg/kg)	Cerebellum % Mean value of inhibition rate (target gene SOD1 [3]; cerebellum, intrathecal, 900 μg per rat)	Cortex % Mean value of inhibition rate (target gene SOD1 [3]; cerebral cortex, intrathecal, 900 μg per rat)	Hippocampus % Mean value of inhibition rate (target gene SOD1 [3]; hippocampus, intrathecal, 900 μg per rat)	level of inhibition on the target gene compared with the Uhd control conjugate (RZ899093) (target gene SOD1 [3]; intrathecal 900 μg per rat)	Cervical segment % Mean value of inhibition rate (target gene SOD1 [3]; spinal cord cervical segment, intrathecal, 900 μg per rat)	Lumbar segment % Mean value of inhibition rate (target gene SOD1 [3]; spinal cord lumbar segment, intrathecal, 900 μg per rat)	Thoracic segment % Mean value of inhibition rate (target gene SOD1 [3]; spinal cord thoracic segment, intrathecal, 900 μg per rat)
RZ899076: siRNA reference sequence with the sense strand with the NM200 (C22) conjugation at Position 4; SEQ ID NO: 18 / 24 (sense UUUNAAUCCUCACUCUAAA; antisense UUUAGAGUGAGGAUUAAAAUG; NM200 (C22) conjugate at sense position 4; modified_base 1..2 OTHER; 2'-methoxy and 5'-thiophosphate modified nucleotides; modified_base 3 OTHER; 2'-methoxy modified nucleotide; modified_base 4 OTHER; n is the synthetic nucleotide analog NM200 as described in the disclosure.; modified_base 5..6 OTHER; 2'-methoxy modified nucleotides; modified_base 7..10 OTHER; 2'-fluoro modified nucleotides; modified_base 11..19 OTHER; 2'-methoxy modified ; modified_base 1 OTHER; 2'-methoxy and 5'-thiovinylphosphonate modified nucleotide; modified_base 2 OTHER; 2'-fluoro and 5'-thiophosphate modified …) [reference compound]	76.03%	80.80%	56.52%	74.58%	51.69%	60.97%	–	–	–	–	–	–	–	–	–	–	–
RZ899078: siRNA sequence with the sense strand with the NM202 (C22) conjugation at Position 6; SEQ ID NO: 20 / 24 (sense UUUUANUCCUCACUCUAAA; antisense UUUAGAGUGAGGAUUAAAAUG; NM202 (C22) conjugate at sense position 6; modified_base 1..2 OTHER; 2'-methoxy and 5'-thiophosphate modified nucleotides; modified_base 3..5 OTHER; 2'-methoxy modified nucleotides; modified_base 6 OTHER; n is the synthetic nucleotide analog NM202 as described in the disclosure.; modified_base 7..10 OTHER; 2'-fluoro modified nucleotides; modified_base 11..19 OTHER; modified_base 1 OTHER; 2'-methoxy and 5'-thiovinylphosphonate modified nucleotide; modified_base 2 OTHER; 2'-fluoro and 5'-thiophosphate modified nucleotide; modified_base 6 OTHER;)	71.42%	67.27%	55.23%	47.67%	68.69%	32.10%	superior inhibitory activity	certain inhibitory action	–	–	–	–	–	–	–	–	–
RZ899090: siRNA sequence with the sense strand with the NM073 (C18) conjugation at Position 4; SEQ ID NO: 15 / 23 (sense UUUNAAUCCUCACUCUAAA; antisense UUUAGAGUGAGGAUUAAAAUG; NM073 (C18) conjugate at sense position 4; modified_base 1..2 OTHER; 2'-methoxy and 5'-thiophosphate modified nucleotides; modified_base 3 OTHER; 2'-methoxy modified nucleotide; modified_base 4 OTHER; n is the nucleotide analog NM073 as described in the disclosure.; modified_base 5..6 OTHER; 2'-methoxy modified nucleotides; modified_base 7..10 OTHER; 2'-fluoro modified nucleotides; modified_base 11..19 OTHER; modified_base 1 OTHER; 2'-methoxy and 5'-thiovinylphosphonate modified nucleotide; modified_base 2 OTHER; 2'-fluoro and 5'-thiophosphate modified nucleotide; modified_base 3..5 OTHER; …)	71.07%	81.60%	67.09%	43.77%	67.88%	33.16%	superior inhibitory activity	certain inhibitory action	equivalent or superior inhibitory activity	substantially comparable	56.97%	−15.00%	35.35%	comparable level of inhibition in the spinal cord segment and cerebellum	69.98%	93.93%	94.17%
